Assay results as given in patent publication US20160113905A1, “Polymer composition and polymer material” (INDUSTRIAL TECHNOLOGY RESEARCH INSTITUTE, priority 2012, published 2016).
Values joined by “and” are separate entries in the source; they are usually repeats but may differ in a detail not shown here. Equal entries are not always repeated.

target: T1, matrix metalloproteinase-9 (Homo sapiens, UniProt P14780); assay: Inhibition test of matrix metalloproteinase-9 activity (fluorogenic substrate, activated pro-MMP-9)
T1 sequence (P14780 107-707 limits assumed, species assumed): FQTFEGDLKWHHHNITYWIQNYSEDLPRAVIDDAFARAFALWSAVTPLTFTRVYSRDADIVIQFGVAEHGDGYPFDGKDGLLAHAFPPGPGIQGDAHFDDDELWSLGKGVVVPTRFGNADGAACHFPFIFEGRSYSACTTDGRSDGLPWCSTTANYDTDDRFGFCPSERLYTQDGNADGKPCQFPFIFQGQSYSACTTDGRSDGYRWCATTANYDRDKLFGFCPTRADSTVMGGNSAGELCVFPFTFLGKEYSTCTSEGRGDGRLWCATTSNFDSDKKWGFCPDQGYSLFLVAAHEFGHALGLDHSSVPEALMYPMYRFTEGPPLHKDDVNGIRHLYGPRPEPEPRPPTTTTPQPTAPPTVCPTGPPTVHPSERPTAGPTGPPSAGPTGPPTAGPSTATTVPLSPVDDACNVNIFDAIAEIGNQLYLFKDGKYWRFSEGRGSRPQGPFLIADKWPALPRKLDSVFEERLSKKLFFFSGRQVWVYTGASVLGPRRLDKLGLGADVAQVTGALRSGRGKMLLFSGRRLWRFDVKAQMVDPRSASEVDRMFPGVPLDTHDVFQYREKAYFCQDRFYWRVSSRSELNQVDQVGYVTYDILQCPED
Procedure: Step 1: Activation of Pro-Matrix Metalloproteinase-9
100 nM APMA (final concentration 1 M) as added to a 10 μg/ml of pro-matrix metalloproteinase-9 solution (R&D), and reacted in a 37° C. incubator for 2 hours to convert pro matrix metalloproteinase-9 to activated pro-matrix metalloproteinase-9
The activated pro-matrix metalloproteinase-9 was diluted with matrix metalloproteinase-9 activity analysis buffer (50 mM Tris, 10 mM CaCl2, 150 mM NaCl, 0.05% Brij-35(w/v), pH 7.5) to a concentration of 10 ng/ml. Activated pro-matrix metalloproteinase-9 was added to each test sample and placed in a 37° C. incubator for reaction for 2 or 24 hours. The negative control group contained no activated pro-matrix metalloproteinase-9 solution to test the response of the sample, and positive control added metalloproteinase-9 activity inhibitor, 1,10-Phenanthroline (1,10-PT) (final concentration: 0.1 mM), to the activated pro-matrix metalloproteinase-9 solution.
Step 3: Analysis for Matrix Metalloproteinase-9
The activated pro-matrix metalloproteinase-9 solution after being reacted with the material was taken in a 96-well black plate. Equal volume of substrate for matrix metalloproteinase-9 was added to the 96-well black plate and reacted in a 37° C. incubator for 0.5-1 hour, and then the fluorescence (Ex/Em=320/405 nm) of the reaction was determined by a high sensitivity fluorescence reader (Flexstation3).

IC50 [mM]	Compound
10.3	CC(C)(C)OC(=O)N[C@@H](Cc1c[nH]cn1)C(=O)O [BocHis, Boc-histidine, reference compound]

target: T1, matrix metalloproteinase-9; assay: not given

Compound	inhibition
CC(C)(C)OC(=O)N[C@@H](Cc1c[nH]cn1)C(=O)O [BocHis, Boc-histidine, reference compound]	76.8%
histidine grafted-hydroxypropyl methylcellulose derivative [Lot 5]	33.2%
histidine grafted-hydroxypropyl methylcellulose derivative [Lot 6]	42.4% and 37.3%
histidine grafted-hydroxypropyl methylcellulose derivative [Lot 7]	36.4%
histidine grafted-poly(ethylene vinyl-co-alcohol) derivative [Lot 3]	43.7%
histidine grafted-poly(ethylene vinyl-co-alcohol) derivative [Lot 4]	38.2%
histidine grafted-polyvinyl alcohol derivative [Lot 2]	41%

target: T1, matrix metalloproteinase-9; assay: not given; remark: another data set of the same source

inhibition	Compound
26.2% and 22.9%	histidine grafted-poly(ethylene vinyl-co-alcohol) derivative [EVOH-g-BocHis]
